According to patent publication US20040120932A1, “In vitro-derived adult pluripotent stem cells and uses therefor” (priority 2000, published 2004):

Tests used:
human telomerase (“TRT”) = assay: Semi-quantitative RT-PCR of telomerase (TRT) gene expression; type: cell-based; conditions: NUCREM cells subsequently treated with 1-2 μM retinoic acid, day five (treatment regimen 3)
Experimental: 5-aza-2′-deoxycytidine (Sigma, St. Louis) was added at a concentration of 10-25 μM to cultures of human adult keratinocytes that were approximately 40% to 80% confluent. These cultures were further incubated for approximately four (4) days at 37° C. in an atmosphere of 5-10% CO2. After four days in the presence of 5-aza-2′-deoxycytidine, trichostatin A (Sigma, St. Louis) was added to the cultures at a concentration of 100-250 ng/ml. Cultures were further incubated for approximately one (1) day, as described above. RNA was extracted from some of the aliquots of cultures at this point (treatment regimen 1) for subsequent RT-PCR analysis. Other aliquots of cultures were subsequently treated as follows. […]
(§1) RT-PCR was performed using the QIAGEN® OneStep RT-PCR Kit (Qiagen Inc., Valencia, Calif.) according to the manufacturer's instructions. […] To control for the quality of the extracted RNA and to serve as an internal quantification marker, human glyceraldehyde 3-phosphate dehydrogenase (“GAPDH”) oligonucleotide primers were included in the RT-PCR reaction.
(§2) The RT-PCR products were run out on a 2% agarose gel, which was then stained with ethidium bromide. The intensity of the resultant DNA bands were quantified using the PHORETIX™ TotalLab densitometry software package developed by Nonlinear USA (Durham, N.C.). […]

[1] = test system: neurofilament heavy chain (“NF”); assay: Semi-quantitative RT-PCR of neurofilament heavy chain (NF) gene expression; type: cell-based, human; conditions: NUCREM cells treated with 1-2 μM retinoic acid, day five (treatment regimen 3); ±45% SEM, three experiments
Experimental: (§3) Subsequent to cyclin B treatment, the cultures of in vitro derived adult pluripotent stem cells were cultured in the presence of approximately 1-2 μM retinoic acid (“RA”) (Sigma, St. Louis) for five (5) to 10 days. […] By day five (5) of retinoic acid treatment, approximately 50% of the cells in culture attained a neuron-like morphology (FIG. 1). At day five of RA treatment (treatment regimen 3), RNA was extracted from the cultures for RT-PCR analysis. […]
as §1, §2

α1-antitrypsin (“αAT”) = assay: Semi-quantitative RT-PCR of α1-antitrypsin (αAT) gene expression; type: cell-based, human; conditions: NUCREM cells treated with 1-2 μM retinoic acid, day five (treatment regimen 3); ±94% SEM, three experiments
Experimental: as §3, §1, §2

cardiac actin (“cACT”) = assay: Semi-quantitative RT-PCR of cardiac actin (cACT) gene expression; type: cell-based, human; conditions: NUCREM cells treated with 1-2 μM retinoic acid, day five (treatment regimen 3); ±118% SEM, three experiments
Experimental: as §3, §1, §2

[2] = test system: in vitro derived adult pluripotent stem cells (“NUCREM™ cells”); assay: Retinoic acid induced differentiation of in vitro derived adult pluripotent stem cells (morphology); type: cell-based, human; conditions: approximately 1-2 μM retinoic acid, day five
Experimental: Subsequent to cyclin B treatment, the cultures of in vitro derived adult pluripotent stem cells were cultured in the presence of approximately 1-2 μM retinoic acid (“RA”) (Sigma, St. Louis) for five (5) to 10 days. […] By day five (5) of retinoic acid treatment, approximately 50% of the cells in culture attained a neuron-like morphology (FIG. 1). At day five of RA treatment (treatment regimen 3), RNA was extracted from the cultures for RT-PCR analysis.

CC1=C(/C=C/C(C)=C/C=C/C(C)=C/C(=O)O)C(C)(C)CCC1 [retinoic acid]
decrease in levels of expression of TRT (human telomerase (“TRT”)): approximately 50% | increase in levels of expression of NF relative to untreated keratinocytes [1]: 89% | increase in levels of expression of αAT relative to untreated keratinocytes (α1-antitrypsin (“αAT”)): 343% | increase in levels of expression of cACT relative to untreated keratinocytes (cardiac actin (“cACT”)): 667% | cells in culture that attained a neuron-like morphology [2]: approximately 50%
